Experimental data as given in patent US20120136050A1, “USE OF A MELATONIN AGONIST FOR THE TREATMENT OF SLEEP DISORDERS INCLUDING PRIMARY INSOMNIA” (VANDA PHARMACEUTICALS INC., priority 2009, published 2012).
Entries after “also recorded” stand apart in the source; their conditions may differ.

Key:
healthy volunteers = test: Previous Phase I single and multiple ascending dose studies, safety and tolerability; assay type: in vivo
Experimental: A 28-day Phase II study was also conducted to investigate the effects of Compound A in elderly patients with primary insomnia. […] While patients with the lowest melatonin levels ([…]) may have benefited from Compound A treatment more than placebo, the design of this study made it difficult to interpret the effects of Compound A on the sleep-wake cycle.
The oral doses selected were based on safety and efficacy data obtained from previous Compound A pre-clinical and clinical trials. […] Though not optimally designed to assess the chronobiotic potential of Compound A, clinical trial CN116-002 measured the effects Compound A on the circadian sleep-wake cycle. […] The doses selected for the study (10 mg, 20 mg, 50 mg, and 100 mg) were within the expected dose range for efficacy. The safety of the selected doses for this study is supported by previous clinical studies. […] The highest dose in the study, 100 mg, is well within the safety margin established in both Phase I single and multiple ascending dose trials and in a Phase II study.

[1] = tested on: healthy volunteers, 5 hour advance in bedtime; test: Example 1: placebo-controlled clinical trial, 5 hour advance in bedtime (DLMO, PSG); assay type: in vivo, human
Experimental: A clinical trial was conducted to assess the safety of Compound A as well as to determine the ability of Compound A to shift the sleep/wake cycle following a 5 hour advance in bedtime. The study was a randomized, double-blind, parallel group, placebo-controlled study. It consisted of a 2-4 week outpatient screening period followed by an 8-day inpatient stay. After acclimating to the sleep lab, bedtime was advanced by 5 hours. The primary objectives of this study were to investigate the exposure-response to Compound A on advancement of circadian release of endogenous melatonin rhythm as measured by dim light melatonin onset (DLMO, a biomarker of the sleep-wake cycle), to investigate the exposure-response to Compound A on mean sleep efficiency parameters as measured by PSG, to investigate the exposure-response to Compound A on objective neurobehavioral performance lapses during scheduled work-time as measured by computerized continuous performance testing, and to assess the safety and tolerability of Compound A. Forty-five healthy volunteers, men and women aged 18-50, were enrolled into this study. Thirty-nine subjects were randomized.
The study was designed to assess the safety and efficacy of four oral doses of Compound A (10 mg, 20 mg, 50 mg and 100 mg) compared to matching placebo on circadian phase shift, sleep parameters during the major sleep episode, and subject alertness. After written informed consent was signed, subjects that met the inclusion/exclusion criteria at screening and baseline were enrolled into the 8-day in-patient portion of the study. All in-patient assessments were conducted in a time-isolation sleep lab in which no time cues were available to subjects. During the first three nights, subjects were given placebo 30 minutes prior to bedtime (11:00 PM) in a single-blind fashion. Baseline assessments for the efficacy parameters were measured during this period. At 5:00 PM on day 3, subjects started a 19 hour pre-constant posture (CP) segment during which time the subjects remained seated in a semi-recumbent position and blood samples were collected approximately every hour from 7:00 AM to 12:00 PM. The purpose of the pre-CP segment is to provide a measure of each subject's circadian phase before the start of the night shift segment. On day 4, subjects were randomized to once daily treatment in one of the five treatment groups. In addition, subject sleep-wake routines were advanced 5 hours, such that subjects were required to sleep from approximately 6:00 PM-2:00 AM. Treatment was administered and the time shift was maintained for 3 days. Efficacy parameters were collected during this time. To measure circadian phase at the end of the study, a 24-hour post-CP was conducted immediately after the treatment segment on day 7. Over the course of the study, approximately 500 mL of blood was drawn from each subject. Safety was assessed throughout the study, at the end of study (EOS) visit on day 8, and at the Follow-up visit. The target number of subjects for enrollment was 40 but 45 were actually enrolled.
To assess circadian sleep-wake cycles in the study, plasma melatonin levels were assessed. The onset of melatonin production, or dim light melatonin onset (DLMO), is associated with onset of sleep. DLMO is considered a standard marker used frequently to assess circadian phase. To assess the effects of Compound A on the sleep-wake cycles, DLMO was monitored in subjects before and after treatment. For this study, DLMO was defined as the time when melatonin production reaches 25% of the nightly peak (MEL25% up) of the fitted melatonin phase curve.
Because light has a significant confounding effect on melatonin release, light levels in the sleep laboratory were carefully regulated. […]

## CCC(=O)NC[C@@H]1C[C@H]1c1cccc2c1CCO2 [Compound A, N-[[(1R,2R)-2-(2,3-dihydro-1-benzofuran-4-yl)cycloproply]methyl]propanamide]
Healthy volunteers; doses up to 150 mg daily for 28 days, healthy subjects (b53 also elderly subjects with chronic insomnia)
  safety and tolerability, multiple doses: well-tolerated; also recorded: safety and tolerability of Compound A at doses up to 150 mg has been demonstrated
Healthy volunteers; healthy subjects, single oral dose of 1 mg to 300 mg
  safety and tolerability, single dose: safe and well tolerated
[1]; 10 mg, N = 8
  Change in DLMO25%,LOQ5 between Night 4 and Night 3: 0.18 h
  Change in WASO (fraction of time awake from persistent sleep to lights on) between Night 4 and Night 2: 8.37 % points
  Change in WASO between Night 4 and Night 2: 40.56 min
  Mean Change in Sleep Efficiency between Night 4 and Night 2, Full Night: −7.77 % points
[1]; 10 mg, N = 8, mean ± SD, p 0.0034 vs placebo
  Change in Latency to Persistent Sleep between Night 4 and Night 2: -8.25 ± 16.34 min
[1]; 10 mg, N = 8, mean ± SD, p 0.0303 vs placebo
  Mean Change in Sleep Efficiency between Night 4 and Night 2, 2nd Third of the Night: −12.64 ± 13.83 % points
[1]; 20 mg, N = 7
  Change in DLMO25%,LOQ5 between Night 4 and Night 3: -1.14 h
[1]; 20 mg, N = 8
  Change in Latency to Persistent Sleep between Night 4 and Night 2: 5.00 min
  Change in WASO (fraction of time awake from persistent sleep to lights on) between Night 4 and Night 2: 6.91 % points
  Change in WASO between Night 4 and Night 2: 31.19 min
  Mean Change in Sleep Efficiency between Night 4 and Night 2, Full Night: −6.68 % points
[1]; 20 mg, N = 8, mean ± SD, p 0.0048 vs placebo
  Mean Change in Sleep Efficiency between Night 4 and Night 2, 2nd Third of the Night: −5.11 ± 12.78 % points
[1]; 50 mg, N = 4
  Change in DLMO25%,LOQ5 between Night 4 and Night 3: -0.50 h
[1]; 50 mg, N = 7
  Change in WASO (fraction of time awake from persistent sleep to lights on) between Night 4 and Night 2: 6.61 % points
  Change in WASO between Night 4 and Night 2: 31.21 min
[1]; 50 mg, N = 7, mean ± SD, p 0.0028 vs placebo
  Mean Change in Sleep Efficiency between Night 4 and Night 2, 2nd Third of the Night: −2.10 ± 4.14 % points
[1]; 50 mg, N = 7, mean ± SD, p 0.0193 vs placebo
  Change in Latency to Persistent Sleep between Night 4 and Night 2: -3.71 ± 10.97 min
[1]; 50 mg, N = 7, mean ± SD, p 0.0487 vs placebo
  Mean Change in Sleep Efficiency between Night 4 and Night 2, Full Night: −5.87 ± 9.89 % points
[1]; 100 mg, N = 5, mean ± SD, p 0.0276 vs placebo
  Change in DLMO25%,LOQ5 between Night 4 and Night 3: -2.74 ± 1.95 h
[1]; 100 mg, N = 6, mean ± SD, p 0.0214 vs placebo
  Change in Latency to Persistent Sleep between Night 4 and Night 2: -4.17 ± 6.93 min
[1]; 100 mg, N = 7, mean ± SD, p 0.0030 vs placebo
  Mean Change in Sleep Efficiency between Night 4 and Night 2, 2nd Third of the Night: −2.30 ± 5.72 % points
[1]; 100 mg, N = 7, mean ± SD, p 0.0141 vs placebo
  Mean Change in Sleep Efficiency between Night 4 and Night 2, Full Night: −2.02 ± 4.94 % points
[1]; 100 mg, N = 7, mean ± SD, p 0.0391 vs placebo
  Change in WASO (fraction of time awake from persistent sleep to lights on) between Night 4 and Night 2: 1.85 ± 4.29 % points
[1]; 100 mg, N = 7, mean ± SD, p 0.0452 vs placebo
  Change in WASO between Night 4 and Night 2: 8.50 ± 20.39 min
[1]; Night 4, after phase advance
  number of episodes of REM during the final third of the night: dose-related increase
[1]; between Night 4 and Night 2
  percentage of time in each sleep stage: did not change
[1]; doses of 10, 20, 50, and 100 mg, conclusion from Examples 1 and 2
  tolerability: well-tolerated
[1]; first dose with statistically significant p-value in ANOVA with contrasts
  lowest effective dose for DLMO shift: 100 mg
